Measured values from patent US20060063784A1, “Method of using substituted pyrazolo [1,5-a] pyrimidines” (priority 2004, published 2006).
Read-outs that look alike come from different tables or passages of the source.

What was measured:
[1] = test system: LoVo Colon cell line; experiment: Cytotoxicity assay using LoVo colon cell line, SRB; format: cell-based; conditions: read-out: Inhibition of LoVo
Procedure: Cytotoxicity Assay Using LoVo Colon Cell Line: • 1. LoVo Colon cell lines were cultured in RPMI 1640 medium (Gibco/Invitrogen Life Sciences) supplemented with 10% fetal bovine serum (FBS, Gibco) and 50 μg/ml entamicin (Gibco). Cells were maintained at 37° C. under 7% CO2. • 2. Cells were seeded in 96-well microtiter plates (Corning/Costar) in a volume of 0.15 ml of growth medium (4000 cells/well). Plates were incubated at 37° C. overnight (18-24 hours). • 3. Serial dilutions of the test agent were added to each well. Dilutions were prepared in growth medium. One of two dose ranges was used: 5 pM to 20 μM or 170 pg/ml to 10 μg/ml. Cells were incubated with the test compounds for 4 days at 37° C. • 4. Surviving cells were processed using the SRB asay, as described above.
5. The drug concentration that inhibits cell proliferation by 50% relative to untreated controls (IC50) was determined from cytotoxicity curves using the LSW Toolbox graphing application.

[2] = test system: 80S14 (p21-deficient) cells; experiment: Cytotoxicity assay using isogenic cell lines: IC50 in 80S14 (p21-deficient) cells, SRB; format: cell-based, human
Procedure, shortened: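 80S14 (p21-deficient) cells seeded at 12,000 cells/well overnight, then exposed 5 days at 37 °C to serial dilutions (5 pM–50 μM or 170 pg/ml–10 μg/ml). TCA-fixed, sulforhodamine B-stained, absorbance at 560 nm; IC50 taken from cytotoxicity curves versus untreated controls.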

[3] = Homo sapiens, 96 h, Cellular activity in LoVo cell, 4 days incubation, SRB
[4] = Homo sapiens, 120 h, 80S14 (p21-deficient) cells, 5 days, SRB, class symbols, read-out: IC50 for 80S14
[5] = Homo sapiens, 80S14, 120 h, read-out: IC50 for 80S14 (uM)
[6] = Homo sapiens, 96 h, LoVo colon cells, 4 days incubation, SRB
[7] = Homo sapiens, 120 h, 80S14 p21-deficient cells, 5 days incubation, SRB, read-out: IC50 for 80SI4

Molecule | IC50 [1, 3] | IC50 [2, 4] | also measured
O=C(O)c1cc(Cl)c(Cl)cc1C(=O)Nc1cccc(-c2ccnc3c(C(=O)c4cccs4)cnn23)c1 [Example 446, 4,5-Dichloro-2-[({3-[3-(thien-2-ylcarbonyl)pyrazolo[1,5-a]pyrimidin-7-yl]phenyl}amino)carbonyl]benzoic acid] | 1000 to 20000 nM | 10 to 50 µM | –
CC(C)CC(=O)Nc1cccc(-c2ccnc3c(C(=O)c4ccsc4)cnn23)c1 [Example 297, 3-Methyl-N-{3-[3-(3-thienylcarbonyl)pyrazolo[1,5-a]pyrimidin-7-yl]phenyl}butanamide] | – | – | IC50 ([1]; Homo sapiens, LoVo, 96 h): < 100 nM; IC50 [2, 5]: < 1 µM
O=C(c1cccs1)c1cnn2c(-c3cccc(-c4nnn[nH]4)c3)ccnc12 [Example 501, {7-[3-(1H-Tetraazol-5-yl)phenyl]pyrazolo[1,5-a]pyrimidin-3-yl}(thien-2-yl)methanone] | 1000 to 20000 nM | 10 to 50 µM | –
CC(C)NC(=S)Nc1cccc(-c2ccnc3c(C(=O)c4cccs4)cnn23)c1 [Example 389, N-Isopropyl-N′-{3-[3-(thien-2-ylcarbonyl)pyrazolo[1,5-a]pyrimidin-7-yl]phenyl}thiourea] | < 100 nM | < 1 µM | –
O=C(O)c1ccccc1C(=O)Nc1cccc(-c2ccnc3c(C(=O)c4cccs4)cnn23)c1 [Example 443, 2-[({3-[3-(Thien-2-ylcarbonyl)pyrazolo[1,5-a]pyrimidin-7-yl]phenyl}amino)carbonyl]benzoic acid] | 1000 to 20000 nM | 10 to 50 µM | –
O=C(c1cccs1)c1cnn2c(-c3cccc(NCCc4ccccc4)c3)ccnc12 [Example 362, (7-{3-[(2-Phenylethyl)amino]phenyl}pyrazolo[1,5-a]pyrimidin-3-yl)(thien-2-yl)methanone] | 1000 to 20000 nM | 10 to 50 µM | –
O=C(CSc1ccncc1)Nc1cccc(-c2ccnc3c(C(=O)c4cccs4)cnn23)c1 [Example 449, 2-(Pyridin-4-ylthio)-N-{3-[3-(thien-2-ylcarbonyl)pyrazolo[1,5-a]pyrimidin-7-yl]phenyl}acetamide] | 100 to 1000 nM | 10 to 50 µM | –
CC#CC(=O)Nc1cccc(-c2ccnc3c(C(=O)c4cccs4)cnn23)c1 [Example 274, N-{3-[3-(2-Thienylcarbonyl)pyrazolo[1,5-a]pyrimidin-7-yl]phenyl}-2-butynamide] | < 100 nM | < 1 µM | –
O=C(Nc1cccc(-c2ccnc3c(C(=O)c4cccs4)cnn23)c1)c1ccccc1 [Example 284, N-{3-[3-(2-Thienylcarbonyl)pyrazolo[1,5-a]pyrimidin-7-yl]phenyl}benzamide] | < 100 nM | < 1 µM | –
O=C(c1cccs1)c1cnn2c(-c3cccc(NC(=O)N4CCCCC4)c3)ccnc12 [Example 155, N-{3-[3-(thien-2-ylcarbonyl)pyrazolo[1,5-a]pyrimidin-7-yl]phenyl}piperidine-1-carboxamide] | – | – | IC50 [1, 6]: < 100 nM; IC50 [2, 7]: < 1 µM
CN(C)c1ccc(-c2cc(-c3ccnc4c(C(=O)c5cccs5)cnn34)ccc2F)cc1 [Example 454, {7-[4′-(Dimethylamino)-6-fluoro-1,1′-biphenyl-3-yl]pyrazolo[1,5-a]pyrimidin-3-yl}(thien-2-yl)methanone] | 100 to 1000 nM | 1 to 10 µM | –
{7-[3-(1-Ethyl-1H-pyrazol-3-yl)phenyl]pyrazolo[1,5-a]pyrimidin-3-yl (thien-2-yl)methanone [Example 518] | – | – | IC50 ([1]; Cellular activity in LoVo cell, 4 days incubation, SRB): < 100 nM; IC50 ([2]; 80S14 (p21-deficient) cells, 5 days, SRB, class symbols, read-out: IC50 for 80S14): < 1 µM
CC(C)CC(=O)Nc1cccc(-c2ccnc3c(-c4cccc(Cl)c4Cl)cnn23)c1 [Example 473, N-{3-[3-(2,3-Dichlorophenyl)pyrazolo[1,5-a]pyrimidin-7-yl]phenyl}-3-methylbutanamide] | 100 to 1000 nM | 1 to 10 µM | –
COc1ccc(/C=C/CNc2cccc(-c3ccnc4c(C(=O)c5cccs5)cnn34)c2)cc1 [Example 396, [7-(3-{[(2E)-3-(4-Methoxyphenyl)prop-2-enyl]amino}phenyl)pyrazolo[1,5-a]pyrimidin-3-yl](thien-2-yl)methanone] | 1000 to 20000 nM | 10 to 50 µM | –
CC(C)CC(=O)Nc1cccc(-c2ccnc3c(-c4ccc(Cl)c(Cl)c4)cnn23)c1 [Example 474, N-{3-[3-(3,4-Dichlorophenyl)pyrazolo[1,5-a]pyrimidin-7-yl]phenyl}-3-methylbutanamide] | 1000 to 20000 nM | 10 to 50 µM | –
O=C(Nc1cc(-c2ccnc3c(C(=O)c4cccs4)cnn23)ccc1F)c1c(F)cccc1F [Example 374, 2,6-Difluoro-N-{2-fluoro-5-[3-(thien-2-ylcarbonyl)pyrazolo[1,5-a]pyrimidin-7-yl]phenyl}benzamide] | < 100 nM | < 1 µM | –
O=C(c1cccs1)c1cnn2c(-c3cccc(-c4nnn(CCN5CCOCC5)n4)c3)ccnc12 [Example 507, (7-{3-[2-(2-Morpholin-4-ylethyl)-2H-tetraazol-5-yl]phenyl}pyrazolo[1,5-a]pyrimidin-3-yl)(thien-2-yl)methanone] | 100 to 1000 nM | 1 to 10 µM | –
O=C(c1cccs1)c1cnn2c(-c3csc([N+](=O)[O-])c3)ccnc12 [Example 328, [7-(5-Nitro-3-thienyl)pyrazolo[1,5-a]pyrimidin-3-yl](2-thienyl)methanone] | 100 to 1000 nM | 1 to 10 µM | –
O=Cc1ccc(-c2cccc(-c3ccnc4c(C(=O)c5cccs5)cnn34)c2)cc1 [Example 458, 3′-[3-(Thien-2-ylcarbonyl)pyrazolo[1,5-a]pyrimidin-7-yl]-1,1′-biphenyl-4-carbaldehyde] | 100 to 1000 nM | 1 to 10 µM | –
O=C(c1cccs1)c1cnn2c(-c3cccc(NCC4CCCCC4)c3)ccnc12 [Example 379, (7-{3-[(Cyclohexylmethyl)amino]phenyl)pyrazolo[1,5-a]pyrimidin-3-yl)(thien-2-yl)methanone] | < 100 nM | < 1 µM | –
CCCCCNC(=O)Nc1cccc(-c2ccnc3c(C(=O)c4cccs4)cnn23)c1 [Example 165, N-pentyl-N′-{3-[3-(thien-2-ylcarbonyl)pyrazolo[1,5-a]pyrimidin-7-yl]phenyl}urea] | – | – | IC50 [1, 6]: 100 to 1000 nM; IC50 [2, 7]: < 1 µM
O=C(c1cccs1)c1cnn2c(-c3cccc(NC(=S)Nc4ccccc4)c3)ccnc12 [Example 334, N-Phenyl-N′-{3-[3-(thien-2-ylcarbonyl)pyrazolo[1,5-a]pyrimidin-7-yl]phenyl}thiourea] | 100 to 1000 nM | < 1 µM | –
COCCN(CCOC)C(=O)Nc1cccc(-c2ccnc3c(C(=O)c4cccs4)cnn23)c1 [Example 168, N,N-bis(2-methoxyethyl)-N′-{3-[3-(thien-2-ylcarbonyl)pyrazolo[1,5-a]pyrimidin-7-yl]phenyl}urea] | – | – | IC50 [1, 6]: 1000 to 2000 nM; IC50 [2, 7]: 10 to 50 µM
COc1ccccc1CNc1cccc(-c2ccnc3c(C(=O)c4cccs4)cnn23)c1 [Example 363, (7-{3-[(2-Methoxybenzyl)amino]phenyl}pyrazolo[1,5-a]pyrimidin-3-yl)(thien-2-yl)methanone] | 100 to 1000 nM | 10 to 50 µM | –
Cc1cc(C)cc(-c2cnn3c(-c4cccc(NC(=O)CC(C)C)c4)ccnc23)c1 [Example 476, N-{3-[3-(3,5-Dimethylphenyl)pyrazolo[1,5-a]pyrimidin-7-yl]phenyl}-3-methylbutanamide] | < 100 nM | < 1 µM | –
Cc1cc(-c2cccc(NC(=O)C3CCCC3)c2)n2ncc(C(=O)c3cccs3)c2n1 [Example 204, N-{3-[5-methyl-3-(thien-2-ylcarbonyl)pyrazolo[1,5-a]pyrimidin-7-yl]phenyl}cyclopentanecarboxamide] | – | – | IC50 [1, 6]: 100 to 1000 nM; IC50 [2, 7]: < 1 µM
O=C(Nc1cc(-c2ccnc3c(C(=O)c4cccs4)cnn23)ccc1F)c1ccncc1 [Example 388, N-{2-Fluoro-5-[3-(thien-2-ylcarbonyl)pyrazolo[1,5-a]pyrimidin-7-yl]phenyl}isonicotinamide] | < 100 nM | < 1 µM | –
O=C(Nc1cccc(-c2ccnc3c(C(=O)c4cccs4)cnn23)c1)NC1CC1 [Example 169, N-cyclopropyl-N′-{3-[3-(thien-2-ylcarbonyl)pyrazolo[1,5-a]pyrimidin-7-yl]phenyl}urea] | – | – | IC50 [1, 6]: 100 to 1000 nM; IC50 [2, 7]: 1 to 10 µM
CC(C)CC(=O)Nc1cc(-c2ccnc3c(C(=O)c4cccs4)cnn23)ccc1Cl [Example 313, N-{2-Chloro-5-[3-(2-thienylcarbonyl)pyrazolo[1,5-a]pyrimidin-7-yl]phenyl}-3-Methylbutanamide] | – | – | IC50 ([1]; Homo sapiens, LoVo, 96 h): < 100 nM; IC50 [2, 5]: < 1 µM
O=C(c1cccs1)c1cnn2c(-c3cccc(NCc4cccc(Cl)c4)c3)ccnc12 [Example 365, (7-{3-[(3-Chlorobenzyl)amino]phenyl}pyrazolo[1,5-a]pyrimidin-3-yl)(thien-2-yl)methanone] | 1000 to 20000 nM | 10 to 50 µM | –
